From PubChem BioAssay AID1996 come the findings set out here.

SMILES strings stand for the structures. In brackets after ≈: the same amount, converted by molar mass. A value given as a limit tells only on which side of the number the result lay.

The conditions of this data set: buffer; pH 7.4; 200.0 µM.
`O=S1(=O)N=C(c2ccccc2)c2ccccc21`: the kinetic solubility was determined as 34.7 µg/mL (≈ 143 µM).
The figure for `N#Cc1cccnc1N1CCN(C(=O)c2ccccc2)CC1` is 43.4 µg/mL (≈ 148 µM); for `CC(C)CN=Cc1c(O)c([N+](=O)[O-])cc2oc3c(c12)CCCC3` it is 6.5 µg/mL (≈ 20.5 µM).
The figure for `Cc1ccc(OCC(=O)Nc2ccc(NC(=O)c3ccccc3)c(C)c2)cc1` is 1 µg/mL (≈ 2.67 µM); for `O=C(COC(=O)Cc1ccc(S(=O)(=O)N2CCOCC2)s1)Nc1ccc(OC(F)F)cc1` it is 63.7 µg/mL (≈ 130 µM).
`O=S(=O)(NCc1ccc(Cl)cc1Cl)c1cccs1`: the solubility (kinetic) turned out to be 40.6 µg/mL (≈ 126 µM).
`COc1ccc(CCC(C)NCc2ccc(F)cc2)cc1` (stereo unspecified) had a solubility (kinetic) of 31.8 µg/mL (≈ 111 µM).
Turning to `CCOC(=O)C1CCCN(C(=S)Nc2ccc(OC)cc2)C1` (stereo unspecified), the kinetic solubility is 46 µg/mL (≈ 143 µM).
`O=C(OCc1c(F)cccc1Cl)c1cnc(Cl)c(Cl)c1` displayed a kinetic solubility of under 0.7 µg/mL.
On to `CN(CCO)C(=O)c1c(NC(=O)c2ccccc2)sc2c1CCCC2`, for which the kinetic solubility is 34.1 µg/mL (≈ 95.1 µM).
The figure for `Cc1ccc(CN2C(=O)C(=O)N(CC(N)=O)C2=O)cc1` is over 41.3 µg/mL; for `Cl.NC(CCC(=O)O)C12CC3CC(CC(C3)C1)C2` (stereo unspecified) it is over 41.1 µg/mL.
As to `O=C(NCCc1cccs1)c1ccc(Cl)cc1`, the kinetic solubility is over 39.9 µg/mL.
`COc1ccc2nc(SC)cc(C)c2c1` gave a kinetic solubility of 3.7 µg/mL (≈ 16.9 µM).
`O=C(Oc1ccc(Cl)c2cccnc12)c1cccnc1` showed a solubility (kinetic) of 30 µg/mL (≈ 105 µM).
The figure for `COCCNC(=O)COc1cccc2c1OC(C)(C)C2` is over 41.9 µg/mL.
Compound `N/C(=N\OC(=O)C1CCCCC1)c1ccc(Cl)cc1` displayed a solubility (kinetic) of 8.1 µg/mL (≈ 28.9 µM).
Take `CCOc1cc2c(cc1OCC)C(c1ccc(F)cc1)NCC2` (stereo unspecified): the solubility (kinetic) was over 47.3 µg/mL.
The compound `CCCCCCCn1c(NC(=O)CC)nc2ccccc21` displayed a solubility (kinetic) of 13.8 µg/mL (≈ 48 µM).
The figure for `O=C(Nc1ncccn1)C12CC3CC(CC(C3)C1)C2` is over 38.6 µg/mL.
Consider `Cc1ccc(-c2nc(N3CCN(C)CC3)c3ccccc3n2)cc1.Cl`, for which the solubility (kinetic) was 49 µg/mL.
Regarding `Fc1ccccc1-n1cc(-c2ccccc2)[nH]c1=S`, the kinetic solubility worked out at 6.2 µg/mL (≈ 22.9 µM).
`O=C(COC(=O)/C=C/c1ccc(OC(F)F)cc1)NC1CCCCCC1` had a solubility (kinetic) of 4.6 µg/mL (≈ 12.5 µM).
In turn, `COc1cc(/C=C\C(=O)O)cc(S(=O)(=O)N2CCCCCC2)c1OC` had a solubility (kinetic) of 52.8 µg/mL (≈ 143 µM).
With `CCOC(=O)CC(=O)NC(CC(=O)OC)c1ccc(Br)cc1` (stereo unspecified) the figure was 45.7 µg/mL (≈ 123 µM); with `Cc1cc(Nc2cccc(Cl)c2)c2ccccc2n1`, 32.5 µg/mL (≈ 121 µM).
`O=C1CCCc2ccccc2N1Cc1cccc(F)c1` showed a kinetic solubility of 36.4 µg/mL (≈ 135 µM).
`OC1(Cc2ccccc2)CCNCC1` registered a kinetic solubility of over 28.7 µg/mL.
`CCN(CC)CCN(C(=O)/C=C/c1cccs1)c1nc2ccc(F)cc2s1.Cl` yielded a kinetic solubility of under 0.3 µg/mL.
The compound `O=C(Nc1cccc(C(F)(F)F)c1)Nc1ccon1` came in with a solubility (kinetic) of 9.9 µg/mL (≈ 36.5 µM).
For the compound `Cc1ccc(/C=C2\SC(N3CCCCC3)=NC2=O)cc1`, the kinetic solubility worked out at 5.7 µg/mL (≈ 19.9 µM).
With `COc1ccc(CC(=O)Nc2ccc(S(=O)(=O)N3CCCC3)cc2)cc1OC` the figure was over 60.7 µg/mL; with `COc1cccc(CNC(=O)C(Cc2ccccc2)n2cccc2)c1` (stereo unspecified), 29.7 µg/mL (≈ 88.8 µM); with `O=C(O)c1ccc(S(=O)(=O)Nc2ccc3c(c2)OCCO3)cc1`, 41.5 µg/mL (≈ 124 µM).
Regarding `CC(C)c1ccccc1NC(=S)NCc1ccncc1`, the kinetic solubility came out at 41.1 µg/mL (≈ 144 µM).
Turning to `O=C1NCCN1CCNS(=O)(=O)c1ccccc1[N+](=O)[O-]`, the kinetic solubility was over 47.1 µg/mL.
The compound `O=C(CN1CCCCCC1)Nc1ccc([N+](=O)[O-])cc1Br` had a kinetic solubility of 3 µg/mL (≈ 8.42 µM).
Compound `CCc1ccc(NC(=O)N[C@H](C(=O)O)C(C)CC)cc1` (stereo partly specified) showed a kinetic solubility of over 41.8 µg/mL.
Consider `O=C(c1ccc([N+](=O)[O-])cc1)N(c1ccccn1)c1ccccn1`, for which the solubility (kinetic) is over 48 µg/mL.
On to `Cc1ccc(C(=O)Nc2ccc3c(c2)C(=O)N(CC2CCCO2)C3=O)cc1` (stereo unspecified), for which the kinetic solubility is 1 µg/mL (≈ 2.74 µM).
Turning to `COC(=O)c1ccc(C2NC(=O)c3ccccc3O2)cc1` (stereo unspecified), the kinetic solubility came out at 5.2 µg/mL (≈ 18.4 µM).
On to `CC(NC(=O)/C(C#N)=C/c1ccc(OCC(=O)O)cc1)c1ccccc1` (stereo unspecified), for which the kinetic solubility is 50.8 µg/mL (≈ 145 µM).
Compound `COc1ccccc1Oc1coc2cc(OCC(N)=O)ccc2c1=O` gave a solubility (kinetic) of 47.8 µg/mL (≈ 140 µM).
In turn, `Cc1ccccc1/C=C1\C(=O)Nc2ccc(F)cc21` yielded a solubility (kinetic) of 0.9 µg/mL (≈ 3.55 µM).
`CC(C)CC(=O)Nc1ccc2c(c1)nc(CCN1CCOCC1)n2C`: the kinetic solubility was over 51.7 µg/mL.
With `O=C(NCCCCc1ccccc1)c1ccccc1Br` the figure was 8.6 µg/mL (≈ 25.9 µM).
With `CCOc1ccc(N(C)S(=O)(=O)c2ccc(C)c(C(=O)N3CCN(Cc4ccc5c(c4)OCO5)CC3)c2)cc1`, the solubility (kinetic) was 15.2 µg/mL (≈ 27.6 µM).
Take `COc1ccc(N2C(=O)c3ccccc3S2(=O)=O)cc1`: the kinetic solubility was found to be 1.5 µg/mL (≈ 5.18 µM).
As for `c1ccc2[nH]c(-c3cscn3)nc2c1`, the solubility (kinetic) is over 30.2 µg/mL.
`Cc1ccc(C(=O)COC(=O)[C@@H](NC(=O)c2ccco2)C(C)C)s1` had a kinetic solubility of over 52.4 µg/mL.
`N#Cc1ccccc1/C=C/C(=O)N1CCOCC1` came in with a solubility (kinetic) of over 36.3 µg/mL.
